Measurements: patent US20180155344A1, “TRICYCLIC PIPERIDINE COMPOUNDS” (ACTELION PHARMACEUTICALS LTD, priority 2015, published 2018)
Where a name gives a salt, the structure may show the parent alone.

Molecular target: T1, human TPH1 (Homo sapiens, UniProt P17752)
T1 sequence (P17752 1-444): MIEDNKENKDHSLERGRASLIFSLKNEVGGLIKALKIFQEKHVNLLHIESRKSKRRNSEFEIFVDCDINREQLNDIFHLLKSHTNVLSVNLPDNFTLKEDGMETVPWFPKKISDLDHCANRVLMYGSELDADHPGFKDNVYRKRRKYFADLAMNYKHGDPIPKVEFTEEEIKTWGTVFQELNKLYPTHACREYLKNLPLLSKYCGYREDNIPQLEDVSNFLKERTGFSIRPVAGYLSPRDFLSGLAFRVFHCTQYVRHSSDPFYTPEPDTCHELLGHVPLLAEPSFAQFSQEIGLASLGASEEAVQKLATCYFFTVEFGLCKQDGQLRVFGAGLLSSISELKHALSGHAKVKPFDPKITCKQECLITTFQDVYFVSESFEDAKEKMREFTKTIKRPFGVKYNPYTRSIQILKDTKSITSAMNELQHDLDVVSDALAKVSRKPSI
Experiment: biochemical
Procedure, shortened: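 Inhibition is derived from 5-hydroxy-L-tryptophan fluorescence (540 nm emission, 300 nm excitation) after perchloric acid stop, relative to DMSO vehicle. Recombinant full-length human enzyme (40-80 nM) reacts with 40 μM tryptophan plus 100 μM methyltetrahydropterin, pH 7.6 Tris/DTT/catalase, 15° C, 60 min.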

| IC50 | Compound |
| --- | --- |
| 202 nM | O=C(COc1ccc(CN2CCOCC2)cc1Cl)N1CCc2nc3cc(C(F)(F)F)ccn3c2C1c1ccc(F)cc1 (centres unmarked) [Example 3.29.2, 2-(2-chloro-4-(morpholinomethyl)phenoxy)-1-(1-(4-fluorophenyl)-7-(trifluoromethyl)-3,4-dihydroimidazo[1,2-a:5,4-c′]dipyridin-2(1H)-yl)ethan-1-one] |
| 116 nM | COc1ccc(C2c3c(nc4cc(C(F)(F)F)ccn34)CCN2C(=O)COc2ccc3c(c2)OCO3)cc1OC (centres unmarked) [Example 3.1.21] |
| 48 nM | CCc1nc(NS(C)(=O)=O)ccc1OCC(=O)N1CCc2nc3ccc(F)cn3c2C1c1sc(C)nc1C (centres unmarked) [Example 11.3.1, N-(5-(2-(1-(2,4-dimethylthiazol-5-yl)-8-fluoro-3,4-dihydroimidazo[1,2-a:5,4-c′]dipyridin-2(1H)-yl)-2-oxoethoxy)-6-ethylpyridin-2-yl)methanesulfonamide] |
| 43 nM | O=C(COc1ccc(CN2CCOCC2)cc1Cl)N1CCc2nc3cc(C(F)(F)F)ccn3c2C1c1cccnc1F (centres unmarked) [Example 3.2.1, 2-(2-chloro-4-(morpholinomethyl)phenoxy)-1-(1-(2-fluoropyridin-3-yl)-7-(trifluoromethyl)-3,4-dihydroimidazo[1,2-a:5,4-c′]dipyridin-2(1H)-yl)ethan-1-one] |
| 41 nM | O=C(COc1ccc(CN2CCOCC2)cc1Cl)N1CCc2nc3cc(C(F)(F)F)ccn3c2C1c1cc(-c2ccc(F)cc2)on1 (centres unmarked) [Example 3.47.2, 2-(2-chloro-4-(morpholinomethyl)phenoxy)-1-(1-(5-(4-fluorophenyl)isoxazol-3-yl)-7-(trifluoromethyl)-3,4-dihydroimidazo[1,2-a:5,4-c′]dipyridin-2(1H)-yl)ethan-1-one] |
| 22 nM | O=C(COc1ccc(CN2CCOCC2)cc1Cl)N1CCc2nc3cc(C(F)(F)F)ccn3c2C1c1cc(-c2ccccc2)on1 (centres unmarked) [Example 3.46.1, 2-(2-chloro-4-(morpholinomethyl)phenoxy)-1-(1-(5-phenylisoxazol-3-yl)-7-(trifluoromethyl)-3,4-dihydroimidazo[1,2-a:5,4-c′]dipyridin-2(1H)-yl)ethan-1-one] |
| 2650 nM | CS(=O)(=O)Nc1ccc(OCC(=O)N2CCc3nc4c(F)cccn4c3C2c2ccc(Cl)cc2F)c(Cl)n1 (centres unmarked) [Example 15.1.1, N-(6-chloro-5-(2-(1-(4-chloro-2-fluorophenyl)-6-fluoro-3,4-dihydroimidazo[1,2-a:5,4-c′]dipyridin-2(1H)-yl)-2-oxoethoxy)pyridin-2-yl)methanesulfonamide] |
| 40 nM | COc1ccc(C2c3c(nc4cc(Cl)c(C)cn34)CCN2C(=O)COc2ccc3ccccc3c2)cc1OC (centres unmarked) [Example 13.1.1, 1-(7-chloro-1-(3,4-dimethoxyphenyl)-8-methyl-3,4-dihydroimidazo[1,2-a:5,4-c′]dipyridin-2(1H)-yl)-2-(naphthalen-2-yloxy)ethan-1-one] |
| 210 nM | O=C(COc1ccc[n+]([O-])c1Cl)N1CCc2nc3cc(C(F)(F)F)ccn3c2C1c1ccc(C2CC2)cc1F (centres unmarked) [Example 3.5.4, 2-((2-chloro-1-(I1-oxidanyl)-1I4-pyridin-3-yl)oxy)-1-(1-(4-cyclopropyl-2-fluorophenyl)-7-(trifluoromethyl)-3,4-dihydroimidazo[1,2-a:5,4-c′]dipyridin-2(1H)-yl)ethan-1-one] |
| 8 nM | CCc1cc2nc3c(n2cc1C)C(c1ccc(OC)c(OC)c1)N(C(=O)COc1ccc2ccccc2c1C)CC3 (centres unmarked) [Example 6.1.4, 1-(1-(3,4-dimethoxyphenyl)-7-ethyl-8-methyl-3,4-dihydroimidazo[1,2-a:5,4-c′]dipyridin-2(1H)-yl)-2-((1-methylnaphthalen-2-yl)oxy)ethan-1-one hydrochloride] |
| 57 nM | O=C(COc1ccc2ccccc2c1)N1CCc2nc3cc(C(F)(F)F)ccn3c2C1c1ccc(Cl)nc1 (centres unmarked) [Example 3.37.2, 1-(1-(6-chloropyridin-3-yl)-7-(trifluoromethyl)-3,4-dihydroimidazo[1,2-a:5,4-c′]dipyridin-2(1H)-yl)-2-(naphthalen-2-yloxy)ethan-1-one] |
| 269 nM | O=C(COc1ccc(CN2CCOCC2)cc1Cl)N1CCc2nc3cc(Cl)ccn3c2C1c1cccnc1F (centres unmarked) [Example 2.2.1, 1-(7-chloro-1-(2-fluoropyridin-3-yl)-3,4-dihydroimidazo[1,2-a:5,4-c′]dipyridin-2(1H)-yl)-2-(2-chloro-4-(morpholinomethyl)phenoxy)ethan-1-one] |
| 206 nM | O=C(COc1ccc2ccccc2c1)N1CCc2nc3cc(C(F)(F)F)ccn3c2C1c1cc(-c2ccccc2)on1 (centres unmarked) [Example 3.46.2, 2-(naphthalen-2-yloxy)-1-(1-(5-phenylisoxazol-3-yl)-7-(trifluoromethyl)-3,4-dihydroimidazo[1,2-a:5,4-c′]dipyridin-2(1H)-yl)ethan-1-one] |
| 76 nM | O=C(COc1ccc2ccccc2c1)N1CCc2nc3cc(C(F)(F)F)ccn3c2C1c1nc2ccccc2s1 (centres unmarked) [Example 3.44.1, 1-(1-(benzo[d]thiazol-2-yl)-7-(trifluoromethyl)-3,4-dihydroimidazo[1,2-a:5,4-c′]dipyridin-2(1H)-yl)-2-(naphthalen-2-yloxy)ethan-1-one] |
| 127 nM | Cc1cc(C2c3c(nc4cc(C(F)(F)F)ccn34)CCN2C(=O)COc2ccc3ccccc3c2)ccc1F (centres unmarked) [Example 3.33.1, 1-(1-(4-fluoro-3-methylphenyl)-7-(trifluoromethyl)-3,4-dihydroimidazo[1,2-a:5,4-c′]dipyridin-2(1H)-yl)-2-(naphthalen-2-yloxy)ethan-1-one] |
| 150 nM | O=C(COc1ccc2ccccc2c1)N1CCc2nc3cc(C(F)(F)F)ccn3c2C1c1ccc2c(c1)OCO2 (centres unmarked) [Example 3.16.1, 1-(1-(benzo[d][1,3]dioxol-5-yl)-7-(trifluoromethyl)-3,4-dihydroimidazo[1,2-a:5,4-c′]dipyridin-2(1H)-yl)-2-(naphthalen-2-yloxy)ethan-1-one] |
| 10 nM | COc1cc(F)c(C2c3c(nc4cc(C(F)(F)F)ccn34)CCN2C(=O)COc2ccc(C3(N)COC3)cc2Cl)cc1OC (centres unmarked) [Example 3.18.9, 2-(4-(3-aminooxetan-3-yl)-2-chlorophenoxy)-1-(1-(2-fluoro-4,5-dimethoxyphenyl)-7-(trifluoromethyl)-3,4-dihydroimidazo[1,2-a:5,4-c′]dipyridin-2(1H)-yl)ethan-1-one] |
| 239 nM | Cc1ccc(C2c3c(nc4cc(C(F)(F)F)ccn34)CCN2C(=O)COc2cccnc2Cl)cc1C (centres unmarked) [Example 3.10.3, 2-((2-chloropyridin-3-yl)oxy)-1-(1-(3,4-dimethylphenyl)-7-(trifluoromethyl)-3,4-dihydroimidazo[1,2-a:5,4-c′]dipyridin-2(1H)-yl)ethan-1-one] |
| 118 nM | CCc1ccccc1OCC(=O)N1CCc2nc3cc(C(F)(F)F)ccn3c2C1c1ccc(OC)c(OC)c1 (centres unmarked) [Example 3.1.28] |
| 8 nM | O=C(COc1ccc(N2CCOCC2)nc1Cl)N1CCc2nc3ccccn3c2C1c1ncc(C2CC2)cc1F (centres unmarked) [Example 1.12.1, 2-((2-chloro-6-morpholinopyridin-3-yl)oxy)-1-(1-(5-cyclopropyl-3-fluoropyridin-2-yl)-3,4-dihydroimidazo[1,2-a:5,4-c′]dipyridin-2(1H)-yl)ethan-1-one] |
| 25 nM | COc1cc(F)c(C2c3c(nc4cc(C(F)(F)F)ccn34)CCN2C(=O)COc2ccc(C3(N4CCOCC4)COC3)cc2Cl)cc1OC (centres unmarked) [Example 3.18.10, 2-(2-chloro-4-(3-morpholinooxetan-3-yl)phenoxy)-1-(1-(2-fluoro-4,5-dimethoxyphenyl)-7-(trifluoromethyl)-3,4-dihydroimidazo[1,2-a:5,4-c′]dipyridin-2(1H)-yl)ethan-1-one] |
| 78 nM | COc1ccc(C2c3c(nc4cc(C(F)(F)F)ccn34)CCN2C(=O)COc2nn(C)c(C(F)(F)F)c2Cl)cc1OC (centres unmarked) [Example 3.1.25, 2-((4-chloro-1-methyl-5-(trifluoromethyl)-1H-pyrazol-3-yl)oxy)-1-(1-(3,4-dimethoxyphenyl)-7-(trifluoromethyl)-3,4-dihydroimidazo[1,2-a:5,4-c′]dipyridin-2(1H)-yl)ethan-1-one] |
| 90 nM | COc1ccc(C2c3c(nc4cc(C(F)(F)F)ccn34)CCN2C(=O)COc2ccc3ccccc3c2)nc1 (centres unmarked) [Example 3.52.1, 1-(1-(5-methoxypyridin-2-yl)-7-(trifluoromethyl)-3,4-dihydroimidazo[1,2-a:5,4-c′]dipyridin-2(1H)-yl)-2-(naphthalen-2-yloxy)ethan-1-one] |
| 429 nM | COc1ccc(C2c3c(nc4cc(C(F)(F)F)ccn34)CCN2C(=O)COc2cccnc2Cl)cc1 (centres unmarked) [Example 3.24.2, 2-((2-chloropyridin-3-yl)oxy)-1-(1-(4-methoxyphenyl)-7-(trifluoromethyl)-3,4-dihydroimidazo[1,2-a:5,4-c′]dipyridin-2(1H)-yl)ethan-1-one] |
| 35 nM | Cc1cc(C2c3c(nc4cc(C(F)(F)F)ccn34)CCN2C(=O)COc2ccc(CN3CCOCC3)cc2Cl)ccn1 (centres unmarked) [Example 3.57.2, 2-(2-chloro-4-(morpholinomethyl)phenoxy)-1-(1-(2-methylpyridin-4-yl)-7-(trifluoromethyl)-3,4-dihydroimidazo[1,2-a:5,4-c′]dipyridin-2(1H)-yl)ethan-1-one] |
| 251 nM | Cc1ccc(OCC(=O)N2CCc3nc4cc(C(F)(F)F)ccn4c3C2c2cccnc2F)cc1 (centres unmarked) [Example 3.2.3, 1-(1-(2-fluoropyridin-3-yl)-7-(trifluoromethyl)-3,4-dihydroimidazo[1,2-a:5,4-c′]dipyridin-2(1H)-yl)-2-(p-tolyloxy)ethan-1-one] |
